{"source": "patent US8524682B2", "about": "“Compositions and methods for inhibiting EZH2” (The Regents of the University of Michigan, priority 2007, dated 2013)", "assay_type_in_all_cases": "cell-based", "key": {"EZH2 [1]": {"target": "T1, EZH2 (Homo sapiens, UniProt Q15910)", "T1 construct": "expressed in transfected cells", "T1 sequence (Q15910 whole entry)": "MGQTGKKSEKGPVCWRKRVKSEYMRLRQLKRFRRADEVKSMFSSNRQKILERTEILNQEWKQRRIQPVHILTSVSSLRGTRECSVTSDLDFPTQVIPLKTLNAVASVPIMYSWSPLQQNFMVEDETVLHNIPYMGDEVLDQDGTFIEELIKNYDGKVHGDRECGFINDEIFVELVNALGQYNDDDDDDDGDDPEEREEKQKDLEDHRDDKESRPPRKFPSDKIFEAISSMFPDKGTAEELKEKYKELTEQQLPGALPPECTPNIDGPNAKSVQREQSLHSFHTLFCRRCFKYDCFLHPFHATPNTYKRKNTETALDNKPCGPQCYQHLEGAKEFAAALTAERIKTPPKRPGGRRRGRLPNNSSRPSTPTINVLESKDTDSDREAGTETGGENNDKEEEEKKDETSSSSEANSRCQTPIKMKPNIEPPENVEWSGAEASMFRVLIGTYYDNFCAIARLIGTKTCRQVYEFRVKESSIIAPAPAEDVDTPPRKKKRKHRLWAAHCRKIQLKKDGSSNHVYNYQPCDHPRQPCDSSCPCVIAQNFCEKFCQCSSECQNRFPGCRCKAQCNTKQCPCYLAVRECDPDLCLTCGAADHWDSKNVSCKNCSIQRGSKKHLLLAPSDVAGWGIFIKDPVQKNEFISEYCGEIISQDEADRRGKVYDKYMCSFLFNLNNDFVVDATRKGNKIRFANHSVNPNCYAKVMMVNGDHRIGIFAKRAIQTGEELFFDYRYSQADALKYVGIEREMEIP", "assay": "E-cadherin promoter-luciferase reporter high throughput screen in EZH2 adenovirus infected cells", "details": "final compound concentration about 5 μM, 24 hours", "experimental": "A high throughput screening protocol was used to identify small molecule inhibitors of EZH2. Primary breast cancer cells were transfected with the E-cadherin promoter luciferase reporter gene and infected with the EZH2 adenovirus to suppress luciferase expression 48 hours prior to compound addition. Eighteen hours prior to compound addition, cells were trypsinized and distributed into 384-well plates in 60 μl of medium using the Multidrop equipment. At time zero, compounds were transferred from 1.5 mM DMSO stocks to the cell plates in a final compound concentration of about 5 μM. […] After 24 hours, the expressed luciferase activity was measured by adding 50 μl of the medium and 10 μl of Steady-Glo luciferase reagent (Promega). Sample plates were read in the Pherastar plate reader (BMG Labtech). Each plate in the screen contains 320 compounds to be tested plus 64 control wells placed in the outer two columns on each side of the plate (>50,000 compounds are screened). […] More than 4000 small molecules were screened, which included synthetic chemicals as well as natural products that are available in the Center for Chemical Genomics (CCG) library at the University of Michigan."}, "EZH2 [2]": {"target": "T1, EZH2", "assay": "Quantitative SYBR green RT-PCR of E cadherin transcripts in EZH2 overexpressing cells", "experimental": "A, Chemical structure of the flavonoid isoliquiritigenin. B, Quantitative SYBR green RT-PCR of EZH2 and E cadherin transcripts in cell lines over expressing EZH2 and control adenoviruses. RT-PCR on each sample was performed in duplicate, and a ratio was calculated relative to the housekeeping genes GAPDH. Transcripts were also measured in cells that were treated with isoliquiritigenin or other small molecules.\n(§1) A, Dose response of isoliquiritigenin on inhibiting EZH2 mediated repression. B, A reconstituted basement membrane invasion chamber assay was used to assess the invasion of breast epithelial cell line infected with EZH2 and control adenoviruses as well as SET domain mutant EZH2 adenovirus. EZH2 treated cells were also treated with SAHA, the HDAC inhibitor and isoliquiritigenin, the small molecule inhibitor of EZH2 and the control small molecule phloretin."}, "[3]": {"test_system": "HME cells overexpressing EZH2", "assay": "Basement membrane invasion chamber assay, breast cell line HME overexpressing EZH2", "experimental": "as §1"}}, "data": [{"smiles": "O=C(/C=C/c1ccc(O)cc1)c1ccc(O)cc1O", "note": "[isoliquiritigenin]", "values": [{"measurement": "EZH2 inhibitory activity", "setting": "EZH2 [1]", "value": "potent small molecule inhibitor of EZH2 activity"}, {"measurement": "inhibition of EZH2 mediated E cadherin repression", "setting": "EZH2 [2]; RT-PCR, cells over expressing EZH2", "value": "significantly inhibit"}, {"measurement": "concentration that optimally inhibits the EZH2 mediated E cadherin repression", "setting": "EZH2 [2]; dose response", "value": 16, "unit": "µM"}, {"measurement": "inhibition of invasion mediated by EZH2 overexpression", "setting": "[3]", "value": "inhibited this invasion"}]}]}
